Measured values published in ChEMBL document CHEMBL1154377, “Evaluation of basic, heterocyclic ring systems as templates for use as potassium competitive acid blockers (pCABs)” (Bioorg Med Chem Lett, 2009).

Columns and labels:
CYP3A4 = CYP3A4 (Homo sapiens, UniProt P08684); assay: Inhibition of CYP3A4 assessed as ratio of IC50 at 0 mins to IC50 at 10 mins using diethoxyfluorescein substrate; assay type: ADME; settings: probe diethoxyfluorescein; read-out: Ratio IC50
[1] = Intrinsic clearance in dog liver microsomes; assay type: ADME, Canis lupus familiaris, Microsome
[2] = Inhibition of H+/K+ ATPase in parietal cells assessed as inhibition of histamine-stimulated [14C]aminopyrine accumulation
Cytochrome P450 1A2 = target: T1, Cytochrome P450 1A2 (Homo sapiens, UniProt P05177); assay: Inhibition of CYP1A2; assay type: ADME
T1 sequence (P05177 whole entry): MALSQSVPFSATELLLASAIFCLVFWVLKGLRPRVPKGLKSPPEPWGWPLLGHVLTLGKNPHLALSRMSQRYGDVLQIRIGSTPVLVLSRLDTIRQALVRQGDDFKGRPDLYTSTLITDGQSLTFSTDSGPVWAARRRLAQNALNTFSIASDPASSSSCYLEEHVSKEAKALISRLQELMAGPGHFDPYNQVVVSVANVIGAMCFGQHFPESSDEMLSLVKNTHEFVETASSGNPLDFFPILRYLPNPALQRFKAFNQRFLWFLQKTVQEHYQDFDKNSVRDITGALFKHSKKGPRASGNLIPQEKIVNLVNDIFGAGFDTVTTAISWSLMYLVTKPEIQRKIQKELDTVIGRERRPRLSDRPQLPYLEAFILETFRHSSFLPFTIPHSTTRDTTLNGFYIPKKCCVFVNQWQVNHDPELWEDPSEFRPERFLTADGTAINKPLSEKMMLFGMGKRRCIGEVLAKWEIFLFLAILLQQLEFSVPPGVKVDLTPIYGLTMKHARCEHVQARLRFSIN

Cytochrome P450 3A4 [3] = target: T2, Cytochrome P450 3A4 (Homo sapiens, UniProt P08684); assay: Inhibition of CYP3A4 using diethoxyfluorescein substrate; assay type: ADME
T2 sequence (P08684 whole entry): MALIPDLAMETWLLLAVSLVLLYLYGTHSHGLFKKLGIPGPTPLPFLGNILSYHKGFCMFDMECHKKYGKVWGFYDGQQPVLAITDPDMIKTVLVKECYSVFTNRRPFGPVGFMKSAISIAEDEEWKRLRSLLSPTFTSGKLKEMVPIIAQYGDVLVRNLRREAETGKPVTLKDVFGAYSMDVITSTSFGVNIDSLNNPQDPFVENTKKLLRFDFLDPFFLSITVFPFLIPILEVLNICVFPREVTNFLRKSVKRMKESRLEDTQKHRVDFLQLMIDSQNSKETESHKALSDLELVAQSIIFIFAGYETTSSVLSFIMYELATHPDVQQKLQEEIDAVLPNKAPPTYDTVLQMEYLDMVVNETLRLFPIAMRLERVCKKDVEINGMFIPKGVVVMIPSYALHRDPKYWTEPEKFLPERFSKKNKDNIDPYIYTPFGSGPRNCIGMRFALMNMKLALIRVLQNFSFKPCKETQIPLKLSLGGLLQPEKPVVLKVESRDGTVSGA

[4] = Intrinsic clearance in human liver microsomes; assay type: ADME, Microsome
[5] = Inhibition of H+/K+ ATPase at pH 7.4
Cytochrome P450 3A4 [6] = target: T2, Cytochrome P450 3A4; assay: Inhibition of CYP3A4 using 7-benzyloxyquinoline substrate; assay type: ADME
[7] = Intrinsic clearance in rat liver microsomes; assay type: ADME, Microsome
Cytochrome P450 2C19 = Cytochrome P450 2C19 (Homo sapiens, UniProt P33261); assay: Inhibition of CYP2C19; assay type: ADME
Sequence of Cytochrome P450 2C19 (P33261 whole entry): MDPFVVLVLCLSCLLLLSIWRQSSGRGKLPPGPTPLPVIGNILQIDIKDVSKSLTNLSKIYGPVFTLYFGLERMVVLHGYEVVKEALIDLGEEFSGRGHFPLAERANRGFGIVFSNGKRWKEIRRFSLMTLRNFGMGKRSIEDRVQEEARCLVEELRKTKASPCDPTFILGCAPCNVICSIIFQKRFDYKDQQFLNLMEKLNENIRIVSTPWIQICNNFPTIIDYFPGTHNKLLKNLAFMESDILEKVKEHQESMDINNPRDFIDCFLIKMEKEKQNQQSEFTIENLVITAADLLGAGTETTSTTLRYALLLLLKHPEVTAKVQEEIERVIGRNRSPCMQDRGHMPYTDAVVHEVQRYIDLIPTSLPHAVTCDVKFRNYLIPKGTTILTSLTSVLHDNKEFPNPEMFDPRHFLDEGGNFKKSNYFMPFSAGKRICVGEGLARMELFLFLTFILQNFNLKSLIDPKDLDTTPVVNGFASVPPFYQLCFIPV

CYP2D6 = CYP2D6 (Homo sapiens, UniProt P10635); assay: Inhibition of CYP2D6 assessed as ratio of IC50 at 0 mins to IC50 at 10 mins; assay type: ADME; settings: read-out: Ratio IC50
Sequence of CYP2D6 (P10635 whole entry): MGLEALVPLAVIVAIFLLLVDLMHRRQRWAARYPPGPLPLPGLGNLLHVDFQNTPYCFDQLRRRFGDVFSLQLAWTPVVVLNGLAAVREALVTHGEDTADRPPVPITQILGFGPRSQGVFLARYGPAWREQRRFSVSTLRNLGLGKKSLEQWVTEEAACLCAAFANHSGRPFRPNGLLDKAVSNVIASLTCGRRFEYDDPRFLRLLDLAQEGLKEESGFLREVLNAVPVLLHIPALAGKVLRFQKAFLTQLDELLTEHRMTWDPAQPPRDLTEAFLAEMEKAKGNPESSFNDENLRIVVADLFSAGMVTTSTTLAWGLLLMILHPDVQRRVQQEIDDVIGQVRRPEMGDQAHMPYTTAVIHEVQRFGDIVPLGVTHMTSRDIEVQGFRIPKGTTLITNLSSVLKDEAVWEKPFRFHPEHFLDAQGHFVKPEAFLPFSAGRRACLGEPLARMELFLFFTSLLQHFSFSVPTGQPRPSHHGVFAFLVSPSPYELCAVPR

Cytochrome P450 2C9 = Cytochrome P450 2C9 (Homo sapiens, UniProt P11712)
Sequence of Cytochrome P450 2C9 (P11712 whole entry): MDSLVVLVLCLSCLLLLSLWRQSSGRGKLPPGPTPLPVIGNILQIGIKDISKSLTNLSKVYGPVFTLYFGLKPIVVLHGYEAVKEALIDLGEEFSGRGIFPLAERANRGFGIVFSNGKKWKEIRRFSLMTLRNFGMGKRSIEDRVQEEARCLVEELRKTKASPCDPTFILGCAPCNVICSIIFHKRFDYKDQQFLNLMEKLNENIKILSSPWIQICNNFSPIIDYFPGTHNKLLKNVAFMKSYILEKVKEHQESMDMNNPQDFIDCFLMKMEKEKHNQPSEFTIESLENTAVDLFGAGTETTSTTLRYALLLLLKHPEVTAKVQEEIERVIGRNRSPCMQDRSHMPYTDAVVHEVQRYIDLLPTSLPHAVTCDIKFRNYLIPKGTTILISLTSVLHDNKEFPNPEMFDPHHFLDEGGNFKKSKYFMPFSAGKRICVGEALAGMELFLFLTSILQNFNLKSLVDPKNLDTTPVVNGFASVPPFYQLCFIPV

Cytochrome P450 2D6 = Cytochrome P450 2D6 (Homo sapiens, UniProt P10635); assay: Inhibition of CYP2D6; assay type: ADME
Sequence of Cytochrome P450 2D6 (P10635 whole entry): as the sequence (P10635 whole entry) above

Sequence of CYP3A4 (P08684 whole entry): as the sequence (P08684 whole entry) above

## Cc1c(C)n(C[C@H]2C[C@@H]2C)c2c(OCc3ccc(F)cc3)nncc12
CYP3A4
  IC50 shift: 1.2
[1]
  CLint scaled: 38 mL/min/kg
[2]
  IC50: 0.282 µM
Cytochrome P450 1A2
  IC50: 1.2 µM
Cytochrome P450 3A4 [3]
  IC50: 6 µM
[4]
  CLint scaled: 16 mL/min/kg
[5]
  pIC50: 6.8
Cytochrome P450 3A4 [6]
  IC50: 14 µM
[7]
  CLint scaled: 30 mL/min/kg
Cytochrome P450 2C19
  IC50: 5.1 µM
CYP2D6
  IC50 shift: 0.6
Cytochrome P450 2C9
  IC50: 0.8 µM
Cytochrome P450 2D6
  IC50: 4.4 µM
